Measured values from publication PMC11396839, “Structure-Aided Computational Design of Triazole-Based Targeted Covalent Inhibitors of Cruzipain” (Molecules, 2024).
Values joined by “and” are separate entries in the source; they are usually repeats but may differ in a detail not shown here. Equal values may be shown once. Read-outs that look alike come from different tables or passages of the source.

Experiments:
[1] = biological target: T1, recombinant CZP (cruzain) (Trypanosoma cruzi, UniProt P25779); experiment: CZP inhibition, cleavage of fluorogenic substrate Z-FR-AMC (initial screening and IC50); format: biochemical, T. cruzi
T1 construct: gift of Allison Doak and Prof; Brian Shoichet (University of California San Francisco)
Protocol: The previously reported methods were followed to evaluate the in vitro activity against CZP [91, 92, 93, 94]. Allison Doak and Prof. Brian Shoichet (University of California San Francisco, San Francisco, CA, USA) generously provided recombinant CZP (cruzain). The enzyme activity was measured by monitoring the cleavage of the fluorogenic substrate Z-FR-AMC at 25 °C. Unless stated otherwise, assays were performed using 2.5 μ M of substrate ( KM = 0.5 ± 0.1 μ M) and 0.5 nM CZP in a 0.1 M sodium acetate buffer, pH 5.5, 0.01% Triton X-100 and 2 mM β -mercaptoethanol. DMSO and 1 μ M E-64 were employed as negative and positive controls, respectively, in all assays. Fluorescence was monitored at 340/440 nm (excitation/emission) over time in a Biotec 87 Synergy 2 fluorimeter at the Multiuser Laboratory of the Biochemistry and Immunology Department (UFMG, Belo Horizonte, Brazil). All assays were performed in triplicate in two independent experiments.
Initial screening. For the initial screening against CZP, compounds at 100 μ M were tested against CZP with and without a 10min pre-incubation with the enzyme. The fluorescence was monitored for 10 min at 5 s intervals. DMSO and E-64 were employed in all assays as negative and positive controls, respectively. Initial velocities of the negative control (DMSO) were compared to those in the presence of compounds to calculate the percentage of inhibition. The reported values correspond to the mean and standard error of the mean (SEM) of experiments performed in triplicate in two independent experiments.
IC50 determination. Compounds in at least eight distinct compound concentrations (400 μ M, 100 μ M, 25 μ M, 6.25 μ M, 1.5 μ M, 0.4 μ M, 0.1 μ M and 0.025 μ M) were incubated with CZP for 10 min, and once the substrate was added, the fluorescence was monitored for 10 min at 5 s intervals. IC50 curves were obtained from a non-linear fit of the inhibition values versus the logarithmic concentration of the compounds. The reported IC50 values are the mean and SEM of two independent measurements performed in triplicate.

[2] = biological target: T2, recombinant human cathepsin L (hCatL) (Homo sapiens, UniProt P07711); experiment: hCatL screening, cleavage of Z-FR-AMC; format: biochemical; details: for selectivity for CZP over hCatL in words: 100 μM; for inhibition at 100 µM: 10 min incubation, read-out: % hCatL inhib.
T2 construct: purchased Sigma-Aldrich
Protocol: The recombinant human cathepsin L (hCatL) (Sigma-Aldrich) was activated prior to the assays. First, 10 ng/ μ L of the enzyme was incubated in the activation buffer (50 mM MES, pH 6, 1 mM EDTA, 5mM DTT) for 30 min at 37 °C. hCatL activity was measured based on the cleavage of the fluorescent substrate Z-FR-AMC in a Biotec 87 Synergy 2 fluorimeter at the Multiuser Laboratory of the Biochemistry and Immunology Department (UFMG, Brazil). The assays were executed in 96-well round bottom black plates in 50 mM MES buffer, pH 6, containing 1 mM EDTA, 5 mM DTT, 0.001% Triton-X100, 5 pg/ μ L enzyme and 25 μ M Z-FR-AMC at 37 °C. The triazole-based derivatives were tested against hCatL, at 100 μ M, with a 10 min pre-incubation with the enzyme. The initial velocities of the DMSO control were compared to those in the presence of the compounds. Assays were executed in triplicate in two independent experiments, and enzyme activity was measured for 20 min.

[3] = system: T. cruzi (Tulahuen trypomastigotes overexpressing β-galactosidase) in Vero cells; experiment: T. cruzi inhibition assay, infection model in Vero cells, β-galactosidase activity; format: cell-based, Trypanosoma cruzi; details: for anti-T. cruzi/cytotoxicity balance in words: 50 μM (Ald-4 20 μM)
Protocol: To perform the assay, the drug screening method reported by Buckner et al. was adapted. Vero cells were seeded at 1 × 10^4 per well on 96-well culture plates in 100 μ L MEM-5% FBS. Tulahuen trypomastigotes overexpressing the E. coli β -galactosidase protein were distributed in triplicates on the plate. After a 2 h incubation at 37 °C, the culture media were extracted and replaced with fresh MEM-5% FBS with 1 μ M, 10 μ M or 50 μ M solutions of the triazole-based inhibitors, and the plate was incubated another 72 h at 37 °C. Ninety-six hours post infection, the cell culture media were removed and cells and intracellular amastigotes were lysed in 100 μ L lysis buffer (25 mM Tris pH 8, 2 mM EDTA, 2 mM DTT, 1% Triton X-100, 10% glycerol in ultrapure MQ water) for 10 min at 37 °C. Then, 100 μ L 2× reaction buffer (200 mM sodium phosphate pH 8, 2 mM MgCl2, 100 mM 2-mercaptoethanol and 1.33 mg.mL^−1 o-nitrophenyl- β -galactoside (ONPG)) was added and the reaction was allowed to proceed until a yellow color developed (1–2 h at 37 °C). The absorbance at 420 nm was measured in a Synergy HTX multi-mode microplate reader (Biotek Instruments, Winooski, VT, USA) and normalized to the value obtained for the infection in the absence of inhibitors. To determine its IC50, Ald-6 was evaluated at nine different concentrations (0.098, 0.195, 0.39, 0.78, 1.56 3.13 6.25, 12.5 and 50.0 μ M), following the same protocol. Each infection condition and inhibitor were tested in triplicates in four independent experiments.

CZP [4] = biological target: T3, CZP (Trypanosoma cruzi, UniProt P25779); experiment: Aggregation assays (Triton X-100 sensitivity, BSA preincubation) on CZP; format: biochemical, T. cruzi; details: for CZP activity inhibition percentage, Triton 0% + BSA: compound at its IC50, 10-min preincubation with 4 mg/mL BSA; for CZP activity inhibition percentage, Triton 0% / CZP activity inhibition percentage, Triton 0.01% / CZP activity inhibition percentage, Triton 0.1%: compound at its IC50, 10 min preincubation
T3 construct: gift of Allison Doak and Prof; Brian Shoichet (University of California San Francisco)
Protocol: Aggregation Assays. To evaluate detergent sensitivity, CZP was pre-incubated with compounds at their IC50 for 10 min at room temperature in varying concentrations of Triton X-100 (0%, 0.1% and 0.01%). […] For comparison, the four conditions were assayed in parallel. Aggregation was excluded when the difference in inhibition percentages between the different conditions was less than 20%.

CZP [5] = biological target: T3, CZP; experiment: Mechanism of CZP inhibition (Michaelis-Menten, Lineweaver-Burk); format: biochemical, T. cruzi
Protocol: Mechanism of inhibition. […] The results were calculated by nonlinear (Michaelis–Menten) and linear regression (Lineweaver–Burk plots). The effect of the inhibitor concentration on the KMapp and its Ki was evaluated by the general linear F-test.

T. cruzi = system: T. cruzi; parameters: method as in PMID 18435536, PMID 9705954, PMID 20088534; details: cited from earlier work
Vero cells = experiment: Cytotoxicity assay, Alamar blue; format: cell-based; details: 50 μM, 96 h incubation
Protocol: To evaluate the viability of Vero cells, the Alamar blue method was followed. First, 10^4 Vero cells/well in 100 μ L MEM-10% FBS were seeded in 96-well culture plates. After 24 h, 50 μ M inhibitor solution was added to cell monolayers and incubated for 96 h. After incubation, resazurin solution (final concentration 10 μ g·mL^−1) was added to each well, and fluorescence was measured after 2 h in a Synergy HTX multi-mode microplate reader (Biotek Instruments, Winooski, VT, USA) using the […] filters. Each condition was tested in triplicate and in at least three independent experiments.

CZP [6] = biological target: T3, CZP; experiment: Jump dilution assay on CZP; format: biochemical, T. cruzi; details: for slope of progress curve relative to control (DMSO): 10 × IC50 with 100 × [CZP] 30 min, 100× dilution, 2 h monitoring; for mode of CZP inhibition from jump dilution: in words
Protocol: Jump dilution assay. […] Fluorescence intensities were monitored continuously for 2 h.

[7] = system: T. cruzi (Tulahuen trypomastigotes overexpressing β-galactosidase) in Vero cells; experiment: T. cruzi inhibition assay, infection model in Vero cells, β-galactosidase activity; format: cell-based, Trypanosoma cruzi; details: 50 μM, 72 h p.i.
[8] = 10 min incubation with CZP, mean ± SEM of two independent experiments, read-out: IC50 (μM) against CZP
[9] = 100 μM, 10 min pre-incubation of the enzyme with compound, read-out: % CZP inh.
[10] = read-out: % CZP inhib. wo/inc., 100 μM, without prior incubation

T2 sequence (P07711 114-333): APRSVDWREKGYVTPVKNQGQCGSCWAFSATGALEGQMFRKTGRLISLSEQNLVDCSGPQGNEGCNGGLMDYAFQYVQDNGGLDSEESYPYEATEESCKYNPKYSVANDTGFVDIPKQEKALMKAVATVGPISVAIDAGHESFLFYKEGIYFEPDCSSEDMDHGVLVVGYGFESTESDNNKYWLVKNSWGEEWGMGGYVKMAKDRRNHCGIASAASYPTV
T3 sequence (P25779 123-337): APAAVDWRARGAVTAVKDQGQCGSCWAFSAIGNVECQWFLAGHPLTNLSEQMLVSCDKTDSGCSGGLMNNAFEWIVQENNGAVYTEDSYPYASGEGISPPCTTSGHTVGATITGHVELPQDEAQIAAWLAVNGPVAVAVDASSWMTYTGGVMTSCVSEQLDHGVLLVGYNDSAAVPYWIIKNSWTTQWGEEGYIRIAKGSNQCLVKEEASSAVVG
T1 sequence (P25779 123-337): as above

| Structure (SMILES) | IC50 [1, 8] | selectivity for CZP over hCatL in words [2] | inhibition at 100 µM [2] | anti-T. cruzi/cytotoxicity balance in words [3] | CZP activity inhibition percentage, Triton 0% + BSA (CZP [4]) | CZP activity inhibition percentage, Triton 0% (CZP [4]) | CZP activity inhibition percentage, Triton 0.01% (CZP [4]) | CZP activity inhibition percentage, Triton 0.1% (CZP [4]) | IC50 (T. cruzi) | inhibition at 100 µM [1, 9] | inhibition at 100 µM [1, 10] | cytotoxicity, uninfected Vero cell viability in words (Vero cells) | slope of progress curve relative to control (DMSO) (CZP [6]) | mode of CZP inhibition from jump dilution (CZP [6]) | reduction of infection [7] | other results |
| --- | --- | --- | --- | --- | --- | --- | --- | --- | --- | --- | --- | --- | --- | --- | --- | --- |
| COC(=O)C(CCCNC(=N)N)n1cc(C(NCc2ccc3c(c2)OCO3)C2CCCCC2)nn1 (stereo not drawn) [Es-15] | 6.8 ± 0.3 µM | selective CZP inhibitors | 26 ± 16% | acceptable anti-T. cruzi/cytotoxicity balance | 40± 3% | 44± 5% | 41± 1% | 36± 7% | – | – | – | – | – | – | – | inhibition at 100 µM ([1]; 100 μM, without prior incubation, read-out: % CZP inhib. wo/inc.): 81 ± 2%; Ki (CZP [5]; calculated, general linear F-test p = 0.0127): 3 ± 1 µM; mechanism of CZP inhibition (CZP [5]; in words): mixed mechanism of inhibition; α value (CZP [5]; mixed-model fit of Michaelis-Menten data): 8.3 |
| CN1CCN(C(=O)N[C@@H](Cc2ccccc2)C(=O)N[C@H](/C=C/S(=O)(=O)c2ccccc2)CCc2ccccc2)CC1 [K777] | – | – | – | – | – | – | – | – | ~10 µM and 10 µM | – | – | – | – | – | – | – |
| CCCCC(C(=O)COc1c(F)c(F)cc(F)c1F)n1cc([C@@](C)(NCc2ccc3ncccc3c2)C(C)C)nn1 (stereo partly drawn) [Ts-370] | – | – | – | – | – | – | – | – | 5.1 µM | – | – | – | – | – | – | – |
| NCCCCC(C=O)n1cc(C(NCc2ccc3c(c2)OCO3)C2CCCCC2)nn1 (stereo not drawn) [Ald-6] | 3.3 ± 0.3 µM | selective CZP inhibitors | 26 ± 5% | acceptable anti-T. cruzi/cytotoxicity balance | 37± 3% | 43± 5% | 31± 3% | 44± 4% | – | 81 ± 2% | 18 ± 3% | low cytotoxicity | about 12% | covalent irreversible inhibition | 97% | reduction in T. cruzi infection ([3]; 1 μM): 27%; parasite survival ([3]; 10 μM, after 72 h of incubation): 7%; IC50 ([3]; Trypanosoma cruzi, TULAHUEN, Vero, read-out: IC50^Tc): 3.2 ± 0.4 µM; IC50^Tc/IC50^CZP ratio ([3]; translation ratio): 0.97 ± 0.16 |
| COC(=O)C(CS)n1cc(C(NCc2ccc3c(c2)OCO3)C2CCCCC2)nn1 (stereo not drawn) [Es-14] | – | selective CZP inhibitors | 0% | – | – | – | – | – | – | ≥ 47% | – | significantly reduced cell viability | – | – | – | – |
| O=CC(CO)n1cc(C(NCc2ccc3c(c2)OCO3)C2CCCCC2)nn1 (stereo not drawn) [Ald-10] | – | selective CZP inhibitors | 7 ± 2% | acceptable anti-T. cruzi/cytotoxicity balance | 43± 2% | 47± 6% | 43± 2% | 46± 8% | – | 87 ± 1% | 21 ± 1% | low cytotoxicity | ~24% | covalent irreversible inhibition | 97% | IC50 [1]: 3.4 ± 0.5 µM; reduction of T. cruzi viability ([3]; 10 μM): 38% |
